B1: LX-3103: CAS 9015-68-3 (protein, UniProt P00805 23-348, looked up)
L-asparaginase 2: LPNITILATGGTIAGGGDSATKSNYTVGKVGVENLVNAVPQLKDIANVKGEQVVNIGSQDMNDNVWLTLAKKINTDCDKTDGFVITHGTDTMEETAYFLDLTVKCDKPVVMVGAMRPSTSMSADGPFNLYNAVVTAADKASANRGVLVVMNDTVLDGRDVTKTNTTDVATFKSVNYGPLGYIHNGKIDYQRTPARKHTSDTPFDVSKLNELPKVGIVYNYANASDLPAKALVDAGYDGIVSAGVGNGNLYKSVFDTLATAAKTGTAVVRSSRVPTGATTQDAEVDDAKYGFVASGTLNPQKARVLLQLALTQTKDPQQIQQIFNQY

Columns and labels:
Format in all cases: cell-based, human
[1] = test system: HMGN1; assay: HMGN1 ELISA in culture medium of A549 cancer cells (Example 12, Table 66); conditions: doxorubicin-induced senescent A549 cells, ELISA, DMSO = 100
[2] = test system: senescent foreskin cells; assay: survival of senescent foreskin cells treated with medium supernatant (secreted fluid) of compound-killed cells (Example 13, Tables 68, 69); conditions: culture medium supernatant from dying senescent cells treated with compound at 30 μM, 90 μM or 270 μM; senescent foreskin cells
Description: (§1) After 3 days, cell viability was measured using CellTiter-Glo Luminescent Cell Viability Assay (Promega) or light microscopy.
During this additional culture, by checking with an optical microscope, etc., the medium supernatants containing secreted fluid from normally proliferating and senescent cells in which cell death was induced were obtained. The obtained medium supernatant was replaced with the medium of normally proliferating and senescent cells, respectively, and cell survival rate was measured after 3 days.

[3] = test system: foreskin cells in which senescence was induced by doxorubicin; assay: CellTiter-Glo cell viability of doxorubicin-induced senescent foreskin cells (Examples 1-2, 10, 11, 13; Tables 4, 63, 65); conditions: doxorubicin-induced senescent foreskin cells, CellTiter-Glo, 0 μM = 100
Description: as §1

[4] = test system: HMGN1; assay: HMGN1 ELISA in culture medium of foreskin cells (Examples 10, 11; Tables 62, 63, 64); conditions: doxorubicin-treated foreskin cells, DMSO = 100
[5] = test system: A549; assay: CellTiter-Glo cell viability of senescent A549 cancer cells (Example 12, Table 67); conditions: doxorubicin-induced senescent A549 cancer cells, CellTiter-Glo

Row | Molecule | HMGN1 (amount of HMGN1 secreted in the cell culture) ([1]; test compound 20 ng/ml) | Survival [2] | Survival (%) ([3]; 1.1 μM test compound) | Survival (%) ([3]; 10 μM test compound) | Survival (%) ([3]; 30 μM test compound) | Survival (%) ([3]; […] test compound) | HMGN1 ([4]; 20 ng/ml test compound) | Survival (%) ([5]; 1.1 μM test compound) | Survival (%) ([5]; 10 μM test compound) | Survival (%) ([5]; 30 μM test compound) | HMGN1 (amount of HMGN1 secreted in the cell culture) ([1]; test compound 90 μM) | HMGN1 ([4]; 30 μM test compound) | Survival (%) ([5]; 90 μM test compound) | HMGN1 (amount of HMGN1 secreted in the cell culture) ([1]; test compound 30 μM)
1 | LX-3401: Interferon gamma, CAS 98059-61-1 (IFNy-1b), 82115-62-6 | 284 | 66.8 | 101.8% | 75.8% | 35.4% | 98.1% | 198 | 110.8% | 58.3% | 5.8% | – | – | – | –
2 | Cc1nnc(NC(=O)c2nc(S(=O)(=O)Cc3ccc(F)cc3)ncc2Cl)s1 [LX-916] | – | 48.7 | 103.5% | 54.5% | 3.5% | 94.2% | – | 103.9% | 71.7% | 24.4% | 198 | 317 | 1.7% | –
3 | C[C@@H]1C(=O)C(C#N)=C[C@]2(c3ccccc3)c3c(c(-c4cncnc4)nn3C)CC[C@@H]12 [LX-2408] | – | 55.2 | 85.9% | – | – | 37.5% | – | 96.5% | 15.9% | – | – | 297 | – | 329
4 | O=C(O)CC([S-])C(=O)O.[Au+] (stereo not drawn) [LX-202, Aurothiomalate, reference compound] | – | 45.7 | 97.4% | – | – | 7.6% | – | 96.7% | 37.3% | – | – | 287 | – | 327
5 | Tocofersolan [LX-3001, reference compound] | – | 58.7 | 74.8% | – | – | 1.1% | – | 101.6% | 22.6% | – | – | 301 | – | 261
6 | B1 | – | 64.3 | 84.4% | 48.5% | 25% | 71.2% | – | 68.7% | 21.1% | – | – | 243 | – | 254
